# Data reported in patent US11800867B2, “Methods of repelling biting arthropods, reducing pathogen spread and treating arthropod infestation” (priority 2016, dated 2023).
# Values joined by “and” are separate entries in the source; they are usually repeats but may differ in a detail not shown here. Equal entries are not always repeated.
# Tests used:
# Type in all cases: in vivo
# [1] = tested on: female Culex quinquefasciatus mosquitoes; assay: In vitro membrane feeder repellency assay, probing of treated collagen membranes (Example 2); details: for Percent repellency: 25 μL on collagen membrane, twenty minutes, average ± SE, n = 5
# From the text: (§1) A laboratory trial was required to evaluate the repellency of 1% Nootkatone against female Aedes aegypti, Culex quinquefasciatus, and Anopheles quadrimaculatus mosquitoes using an in vitro method.
# (§2) Female adult laboratory reared Aedes aegypti, Culex quinquefasciatus, and Anopheles quadrimaculatus mosquitoes (susceptible) were obtained from Benzon Research in Carlisle, Pa. 250 mosquitoes were used per replicate (5 replicates per test, per species). Adult mosquitoes were 3-8 days old.
# (§3) Nootkatone was diluted in ethanol and acetone (note that Nootkatone diluted in acetone was not tested against An. quadrimaculatus). A positive control consisting of 20% DEET in ethanol was prepared using stock solutions. Negative controls consisted of no treatment, and ethanol-only treatment.
# (§4) The treatments were applied directly to prepared collagen membranes by pipetting 25 μL of the appropriate substance onto a membrane and spreading it evenly with the tip of the pipette.
# (§5) Exposure container. A 30.5 cm×30.5 cm×30.5 cm rigid plastic frame supported by four, 4 cm high legs, with a sleeved entry on one side and a sliding door on the bottom.
# (§6) Membrane feeder. Five wells (3 cm in diameter×8 mm in depth) in line on a hollow plastic block (6 cm wide×22 cm long×3 cm deep), which fits through the sliding door in the bottom of the exposure container. Hoses attached to each side of the block circulate heated water that is pumped from a water bath. The sliding door in the bottom of the exposure container covers and uncovers the wells in the membrane feeder, allowing mosquitoes to access the wells.
# (§7) Test set-up. The membrane feeder was connected to a heated water bath, and warm water passed through the feeder via a circulating pump so that the wells were warmed to 89-95° F. Seventy-two (72) mg of ATP (disodium salt) were added to 26 mL of warmed citrated bovine blood, which was poured into the wells until they were completely full.
# (§8) The collagen membranes were placed on vacuum greased wax paper for treatment. They were then treated as described above and left for five minutes to dry. After they dried, the membranes were placed over each of the wells (using vacuum grease as an adhesive), completely covering the blood.
# (§9) Exposure to mosquitoes. The mosquitoes were released into the exposure container just prior to exposure to the membranes. The exposure container was then placed on the membrane feeder and the sliding door opened, allowing the mosquitoes to access the wells. The number of mosquitoes probing each membrane was recorded every two minutes for twenty minutes.
# (§10) The above procedures were repeated until five replicates were completed. A new batch of 250 female mosquitoes and fresh blood were used for each replicate, and the wells were cleaned in between replicates. The position of the treatments was rotated for each replicate, so that each treatment was tested on each of the five wells.
# (§11) Percent repellency was calculated for each replicate using the total number of probes with the following formula:
# (§12) [formula] • where C=the total number of probes on the untreated well • and T=the total number of probes on the treated well
# (§13) Average percent repellency and standard error were then calculated across all five replicates. Shapiro-Wilks tests were conducted to determine the normality of the data, based on total number of probes per replicate. Depending on normality, student t-tests (with concurrent F-tests for variance) or Mann-Whitney tests were then used to determine significance between the treatments.
# [2] = tested on: female Aedes aegypti mosquitoes; assay: as above; details: for Percent repellency: 25 μL on collagen membrane, twenty minutes, average ± SE, n = 5
# From the text: as §1, §2, §3, §4, §5, §6, §7, §8, §9, §10, §11, §12, §13
# [3] = tested on: female Anopheles quadrimaculatus mosquitoes; assay: as above; details: for Percent repellency: 1% Nootkatone in ethanol, 25 μL on collagen membrane, twenty minutes, average ± SE, n = 5
# From the text: as §1, §2, §3, §4, §5, §6, §7, §8, §9, §10, §11, §12, §13
# [4] = tested on: cat fleas (Ctenocephalides felis); assay: Filter paper choice test of repelling action (Example 6); details: for Raw data: number of fleas on Treated half of treated arena, per replicate / Raw data: number of fleas on Untreated half of treated arena, per replicate: 0.5% nootkatone in ethanol, Replicates 1-5
# Protocol: (§14) An in vitro laboratory trial was required to assess the repelling action of nootkatone applied to filter paper against cat fleas (Ctenocephalides felis), deer ticks (Ixodes scapularis), bed bugs (Cimex lectularius), and termites (Reticulitermes flavipes) in a choice test design.
# (§15) The sponsor provided a sample of nootkatone (98%), which was diluted in ethanol to a 0.5% concentration. The treatment was applied to filter paper at a rate of 1 mL for a 9 cm filter paper disc, and a rate of 1.9 mL for a 15 cm filter paper disc. A negative control group, consisting of untreated filter paper, was also assessed for comparison purposes.
# Cat fleas: Treated and untreated filter papers were cut in half and fitted into the bottom of a 15 cm clear plastic cylinder. Treated replicates received one half treated and one half untreated filter paper; negative control replicates received only untreated filter paper.
# Cat fleas: Cat fleas were introduced to the untreated side of each arena, and their distribution (on or under each paper) was recorded at +1, +4, and +24 hours post-introduction.
# (§16) The number of insects in each location was converted to a percentage, for which the average and standard error were calculated across all five replicates.
# (§17) Percent repellency was calculated with the following formula: % repellency=(1−((t/T)/(c/C)))*100 • Where t=number of insects on treated side of treated arena • T=total number of insects in treated arena • c=average number of insects on right side of untreated arenas • C=average total number of insects in untreated arenas
# [5] = tested on: termites (Reticulitermes flavipes); assay: as above
# Protocol: as §14, §15
# Termites: One long glass tube with screened ends (to provide ventilation) was used for each test container. Test containers were placed into a larger container to prevent escapes, and were kept in darkness and at high humidity for the duration of the experiment. Treated and untreated filter papers were cut into strips and fitted inside the glass tubes. Treated replicates received one treated and one untreated paper; negative control replicates received two untreated strips. The two paper strips were pushed end to end to form one continuous strip, leaving a 2 mm gap running the entire length of the tube for viewing termite activity.
# Termites: Termites were placed in the center of each test container and left to distribute undisturbed for 24 hours. At the end of the exposure period, the distribution (on or under each filter paper) of termites was recorded.
# as §16, §17
# [6] = 1% Nootkatone diluted in ethanol and in acetone
# [7] = 0.5% nootkatone in ethanol on filter paper
# [8] = 0.5% nootkatone in ethanol, 24 Hours post introduction, Replicates 1-3
structure (smiles),measurement,setting,value
"C=C(C)[C@@H]1CCC2=CC(=O)C[C@@H](C)[C@]2(C)C1 [Nootkatone, nootkatone]","Protection compared with untreated or ethanol alone (significance, α=0.05)",[1]; [6],significantly higher protection
same,"Protection level compared with 20% DEET (significance, α=0.05)",[1]; [6],not significantly different from 20% DEET
same,Percent repellency,[1]; 1% Nootkatone in acetone,80.1 ± 10.0%
same,Percent repellency,[1]; 1% Nootkatone in ethanol,83.8 ± 5.5%
same,"Protection compared with untreated or ethanol alone (significance, α=0.05)",[2]; [6],significantly higher protection
same,"Protection level compared with 20% DEET (significance, α=0.05)",[2]; [6],not significantly different from 20% DEET
same,Percent repellency,[2]; 1% Nootkatone in acetone,91.5 ± 2.1%
same,Percent repellency,[2]; 1% Nootkatone in ethanol,92.0 ± 3.4%
same,Percent repellency,[3],90.3%
same,Percent repellency,[3]; listed as Nootkatone (ethanol),90.3 ± 5.3%
same,Protection compared with ethanol alone (significance),[3]; 1% nootkatone diluted in ethanol,not found to be significantly different from ethanol alone
same,Repellency (conclusion in words),[4]; [7],some potential repellency
same,"Raw data: number of fleas on Treated half of treated arena, per replicate",[4]; 1 Hour post introduction,3 (2×) and 8 and 6 and 4
same,"Raw data: number of fleas on Untreated half of treated arena, per replicate",[4]; 1 Hour post introduction,2 and 4 (2×) and 7 and 3
same,"Raw data: number of fleas on Treated half of treated arena, per replicate",[4]; 4 Hours post introduction,2 and 1 and 3 (2×) and 4
same,"Raw data: number of fleas on Untreated half of treated arena, per replicate",[4]; 4 Hours post introduction,9 and 7 and 6 (2×) and 4
same,"Raw data: number of fleas on Treated half of treated arena, per replicate",[4]; 24 Hours post introduction,0 and 2 and 4 and 1 (2×)
same,"Raw data: number of fleas on Untreated half of treated arena, per replicate",[4]; 24 Hours post introduction,8 (2×) and 6 (2×) and 9
same,Calculated percent repellency (average ± SE),"[4]; nootkatone (98%) 0.5% in ethanol on filter paper, half treated, half untreated arena",61.9 ± 15.0%
same,Repellency (conclusion in words),[5]; [7],highly repellent
same,"Raw data: number of termites on Treated strip of treated tube, per replicate",[5]; [8],0
same,"Raw data: number of termites on Untreated strip of treated tube, per replicate",[5]; [8],10
same,Calculated percent repellency (average ± SE),"[5]; nootkatone (98%) 0.5% in ethanol on filter paper strips, one treated, one untreated, 24 hours",100.0 ± 0.0%
